EP4745137A1 (Gluetacs Therapeutics (Shanghai) Co., Ltd., priority 2023, dated 2025)

Assays:
Type in all cases: cell-based
Conditions in all cases: 24 hours of compound treatment, 50 nM and 500 nM tested (concentration behind the class not stated)
CK1α = molecular target: T1, CK1α (Homo sapiens, UniProt P48729+Q96SW2); assay: Western-blot assay of substrate protein degradation in hPBMCs, CK1α
T1 construct: endogenous in cells; host or cells: hPBMCs (Milecell Biotechnologies)

WEE1 = molecular target: T2, WEE1 (Homo sapiens, UniProt P30291+Q96SW2); assay: Western-blot assay of substrate protein degradation in hPBMCs, WEE1
T2 construct: endogenous in cells; host or cells: hPBMCs (Milecell Biotechnologies)
T2 sequence (P30291 whole entry): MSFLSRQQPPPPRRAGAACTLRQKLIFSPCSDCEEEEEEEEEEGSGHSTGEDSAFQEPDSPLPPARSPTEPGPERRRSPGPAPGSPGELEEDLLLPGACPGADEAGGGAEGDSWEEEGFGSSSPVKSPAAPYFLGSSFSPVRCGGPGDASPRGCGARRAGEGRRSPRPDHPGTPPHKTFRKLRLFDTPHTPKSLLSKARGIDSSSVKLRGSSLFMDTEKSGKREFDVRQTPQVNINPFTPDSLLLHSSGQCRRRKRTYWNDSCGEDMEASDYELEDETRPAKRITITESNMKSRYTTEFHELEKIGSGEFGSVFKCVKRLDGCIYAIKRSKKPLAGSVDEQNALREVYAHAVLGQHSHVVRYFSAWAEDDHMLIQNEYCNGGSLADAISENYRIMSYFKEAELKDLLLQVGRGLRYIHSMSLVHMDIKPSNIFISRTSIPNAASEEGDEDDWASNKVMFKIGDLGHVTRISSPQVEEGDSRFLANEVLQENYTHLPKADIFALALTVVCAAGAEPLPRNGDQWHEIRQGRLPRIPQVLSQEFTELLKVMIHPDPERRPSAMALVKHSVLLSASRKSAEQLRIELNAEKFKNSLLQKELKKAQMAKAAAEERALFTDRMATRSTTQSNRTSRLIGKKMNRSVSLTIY
T2 sequence (Q96SW2 whole entry): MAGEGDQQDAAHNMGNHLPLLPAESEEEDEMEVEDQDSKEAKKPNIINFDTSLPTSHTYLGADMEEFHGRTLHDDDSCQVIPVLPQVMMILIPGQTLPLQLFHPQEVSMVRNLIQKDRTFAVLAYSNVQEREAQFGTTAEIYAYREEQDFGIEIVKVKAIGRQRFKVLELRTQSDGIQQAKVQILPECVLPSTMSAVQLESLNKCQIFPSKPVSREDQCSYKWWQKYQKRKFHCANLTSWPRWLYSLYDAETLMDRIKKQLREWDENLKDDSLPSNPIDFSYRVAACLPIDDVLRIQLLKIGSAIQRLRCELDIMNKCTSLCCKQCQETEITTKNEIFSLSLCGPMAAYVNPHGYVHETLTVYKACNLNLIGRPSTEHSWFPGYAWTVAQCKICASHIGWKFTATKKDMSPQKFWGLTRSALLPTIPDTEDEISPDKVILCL
T2 sequence (Q16531 whole entry partner): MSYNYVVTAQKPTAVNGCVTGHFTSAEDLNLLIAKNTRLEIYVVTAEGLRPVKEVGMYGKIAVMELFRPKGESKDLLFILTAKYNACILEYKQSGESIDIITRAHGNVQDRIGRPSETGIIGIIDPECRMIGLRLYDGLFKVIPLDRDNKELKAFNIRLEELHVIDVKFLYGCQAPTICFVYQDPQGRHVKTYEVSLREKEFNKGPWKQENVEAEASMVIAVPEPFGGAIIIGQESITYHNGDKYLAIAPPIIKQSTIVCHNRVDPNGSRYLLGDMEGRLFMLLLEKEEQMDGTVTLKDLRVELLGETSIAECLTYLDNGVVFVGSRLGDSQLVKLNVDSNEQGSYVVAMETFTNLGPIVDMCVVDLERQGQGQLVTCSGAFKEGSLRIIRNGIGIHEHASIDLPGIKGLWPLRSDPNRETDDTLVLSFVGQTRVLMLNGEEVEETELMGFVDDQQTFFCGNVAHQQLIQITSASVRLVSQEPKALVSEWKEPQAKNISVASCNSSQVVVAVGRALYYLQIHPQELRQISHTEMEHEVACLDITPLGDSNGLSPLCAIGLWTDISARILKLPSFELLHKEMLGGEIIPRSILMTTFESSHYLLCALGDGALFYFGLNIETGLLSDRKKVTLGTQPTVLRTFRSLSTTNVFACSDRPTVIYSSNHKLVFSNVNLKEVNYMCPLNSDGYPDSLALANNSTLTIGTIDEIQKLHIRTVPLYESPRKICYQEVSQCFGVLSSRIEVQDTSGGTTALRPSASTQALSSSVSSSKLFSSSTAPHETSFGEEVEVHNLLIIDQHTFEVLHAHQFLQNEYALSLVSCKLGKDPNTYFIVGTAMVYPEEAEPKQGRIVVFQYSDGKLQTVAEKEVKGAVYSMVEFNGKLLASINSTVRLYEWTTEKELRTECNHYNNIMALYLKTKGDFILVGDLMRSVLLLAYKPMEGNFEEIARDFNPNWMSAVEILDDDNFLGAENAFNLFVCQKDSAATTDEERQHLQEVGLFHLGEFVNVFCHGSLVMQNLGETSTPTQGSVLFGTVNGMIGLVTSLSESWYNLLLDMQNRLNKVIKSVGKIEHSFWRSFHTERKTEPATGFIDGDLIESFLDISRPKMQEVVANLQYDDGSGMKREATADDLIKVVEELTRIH

IKZF1 = molecular target: T3, IKZF1 (Homo sapiens, UniProt Q13422+Q96SW2); assay: Western-blot assay of substrate protein degradation in hPBMCs, IKZF1
T3 construct: endogenous in cells; host or cells: hPBMCs (Milecell Biotechnologies)
T3 sequence (Q13422 whole entry): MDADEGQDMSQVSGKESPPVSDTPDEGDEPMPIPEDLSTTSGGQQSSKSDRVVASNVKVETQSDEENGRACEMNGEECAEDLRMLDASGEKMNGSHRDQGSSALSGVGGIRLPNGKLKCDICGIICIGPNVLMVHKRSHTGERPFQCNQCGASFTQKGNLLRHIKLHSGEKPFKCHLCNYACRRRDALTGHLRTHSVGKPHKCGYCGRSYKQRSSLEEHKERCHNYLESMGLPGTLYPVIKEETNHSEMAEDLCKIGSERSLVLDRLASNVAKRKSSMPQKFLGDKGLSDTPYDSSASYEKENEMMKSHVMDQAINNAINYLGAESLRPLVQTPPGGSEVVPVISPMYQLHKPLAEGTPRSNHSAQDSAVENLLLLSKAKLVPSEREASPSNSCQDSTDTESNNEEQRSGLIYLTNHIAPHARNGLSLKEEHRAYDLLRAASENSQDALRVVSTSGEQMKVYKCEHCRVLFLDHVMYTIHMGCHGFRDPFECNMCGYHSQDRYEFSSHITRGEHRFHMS
T3 sequence (Q96SW2 whole entry): as the sequence (Q96SW2 whole entry) above
T3 sequence (Q16531 whole entry partner): as the sequence (Q16531 whole entry partner) above

IKZF3 = molecular target: T4, IKZF3 (Homo sapiens, UniProt Q96SW2+Q9UKT9); assay: Western-blot assay of substrate protein degradation in hPBMCs, IKZF3
T4 construct: endogenous in cells; host or cells: hPBMCs (Milecell Biotechnologies)
T4 sequence (Q9UKT9 whole entry): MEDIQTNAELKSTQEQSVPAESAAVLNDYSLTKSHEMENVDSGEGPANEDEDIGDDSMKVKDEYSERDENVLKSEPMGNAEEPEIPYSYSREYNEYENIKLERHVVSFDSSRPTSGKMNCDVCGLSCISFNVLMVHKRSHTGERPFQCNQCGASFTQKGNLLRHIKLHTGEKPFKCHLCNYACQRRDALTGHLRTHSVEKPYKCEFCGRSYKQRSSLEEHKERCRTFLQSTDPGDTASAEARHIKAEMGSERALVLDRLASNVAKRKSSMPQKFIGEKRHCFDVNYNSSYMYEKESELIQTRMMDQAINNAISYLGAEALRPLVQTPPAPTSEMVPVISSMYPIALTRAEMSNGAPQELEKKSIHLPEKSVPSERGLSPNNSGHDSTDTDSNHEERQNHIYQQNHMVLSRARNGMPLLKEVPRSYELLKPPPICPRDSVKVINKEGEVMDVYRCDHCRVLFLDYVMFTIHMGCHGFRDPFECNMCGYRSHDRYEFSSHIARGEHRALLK
T4 sequence (Q96SW2 whole entry): as the sequence (Q96SW2 whole entry) above
T4 sequence (Q16531 whole entry partner): as the sequence (Q16531 whole entry partner) above

IKZF2 = molecular target: T5, IKZF2 (Homo sapiens, UniProt Q96SW2+Q9UKS7); assay: Western-blot assay of substrate protein degradation in hPBMCs, IKZF2
T5 construct: endogenous in cells; host or cells: hPBMCs (Milecell Biotechnologies)

GSPT1 = molecular target: T6, GSPT1 (Homo sapiens, UniProt P15170+Q96SW2); assay: Western-blot assay of substrate protein degradation in hPBMCs, GSPT1
T6 construct: endogenous in cells; host or cells: hPBMCs (Milecell Biotechnologies)
T6 sequence (P15170 whole entry): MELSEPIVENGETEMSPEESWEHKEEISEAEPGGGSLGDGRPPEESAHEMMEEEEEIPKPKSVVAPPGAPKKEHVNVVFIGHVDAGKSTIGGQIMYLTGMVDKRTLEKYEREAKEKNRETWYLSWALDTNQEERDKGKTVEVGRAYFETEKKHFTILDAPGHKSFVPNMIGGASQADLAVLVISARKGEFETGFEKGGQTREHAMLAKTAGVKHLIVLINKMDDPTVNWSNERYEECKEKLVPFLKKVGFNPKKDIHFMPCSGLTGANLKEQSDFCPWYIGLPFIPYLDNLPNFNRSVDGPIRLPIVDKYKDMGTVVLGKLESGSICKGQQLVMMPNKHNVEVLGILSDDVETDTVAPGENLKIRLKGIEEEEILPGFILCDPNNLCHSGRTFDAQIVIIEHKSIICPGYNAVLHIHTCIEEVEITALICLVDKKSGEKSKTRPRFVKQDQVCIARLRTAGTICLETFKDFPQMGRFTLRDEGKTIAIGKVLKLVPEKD
T6 sequence (Q96SW2 whole entry): as the sequence (Q96SW2 whole entry) above
T6 sequence (Q16531 whole entry partner): as the sequence (Q16531 whole entry partner) above

T1 sequence (P48729 whole entry): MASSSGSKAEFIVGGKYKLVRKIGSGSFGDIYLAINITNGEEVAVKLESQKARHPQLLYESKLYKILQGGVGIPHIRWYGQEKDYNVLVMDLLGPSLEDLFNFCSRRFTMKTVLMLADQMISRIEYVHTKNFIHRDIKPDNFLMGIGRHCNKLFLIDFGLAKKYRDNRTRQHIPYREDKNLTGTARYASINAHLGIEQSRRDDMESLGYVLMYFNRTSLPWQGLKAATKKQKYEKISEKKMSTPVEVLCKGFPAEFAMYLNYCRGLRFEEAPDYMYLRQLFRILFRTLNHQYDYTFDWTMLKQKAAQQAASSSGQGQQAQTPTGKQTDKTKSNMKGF
T1 sequence (Q96SW2 whole entry): as the sequence (Q96SW2 whole entry) above
T1 sequence (Q16531 whole entry partner): as the sequence (Q16531 whole entry partner) above

SMILES | CK1a substrate protein remaining % (CK1α) | Weel substrate protein remaining % (WEE1) | IKZF 1 substrate protein remaining % (IKZF1) | IKZF3 substrate protein remaining % (IKZF3) | IKZF2 substrate protein remaining % (IKZF2) | GSPT1 substrate protein remaining % (GSPT1)
O=C1CCC(N2C(=O)c3ccc(CN4CC5CCC4CN5c4cccc(Cl)c4Cl)cc3C2=O)C(=O)N1 (stereo not drawn) [GT-06692, 5-((5-(2,3-dichlorophenyl)-2,5-diazabicyclo[2.2.2]octan-2-yl)methyl)-2-(2,6-dioxopiperidin-3-yl)isoindoline-1,3-dione] | B (80%< substrate protein remaining %≤ 100%) | A (0% ≤ substrate protein remaining % ≤ 80%) | B (80%< substrate protein remaining %≤ 100%) | B (80%< substrate protein remaining %≤ 100%) | A (0% ≤ substrate protein remaining % ≤ 80%) | A (0% ≤ substrate protein remaining % ≤ 80%)
O=C1CCC(N2C(=O)c3ccc(CN4CC5CCC(C4)N5c4cccc(Cl)c4Cl)cc3C2=O)C(=O)N1 (stereo not drawn) [GT-06693, 5-((8-(2,3-dichlorophenyl)-3,8-diazabicyclo[3.2.1]octan-3-yl)methyl)-2-(2,6-dioxopiperidin-3-yl)isoindoline-1,3-dione] | B (80%< substrate protein remaining %≤ 100%) | A (0% ≤ substrate protein remaining % ≤ 80%) | B (80%< substrate protein remaining %≤ 100%) | B (80%< substrate protein remaining %≤ 100%) | A (0% ≤ substrate protein remaining % ≤ 80%) | A (0% ≤ substrate protein remaining % ≤ 80%)
O=C1CCC(N2C(=O)c3ccc(CN4CCCN(c5cccc(Cl)c5Cl)CC4)cc3C2=O)C(=O)N1 (stereo not drawn) [GT-06695, 5-((4-(2,3-dichlorophenyl)-1,4-diazepan-1-yl)methyl)-2-(2,6-dioxopiperidin-3-yl)isoindoline-1,3-dione] | B (80%< substrate protein remaining %≤ 100%) | B (80%< substrate protein remaining %≤ 100%) | B (80%< substrate protein remaining %≤ 100%) | B (80%< substrate protein remaining %≤ 100%) | A (0% ≤ substrate protein remaining % ≤ 80%) | A (0% ≤ substrate protein remaining % ≤ 80%)
O=C1CCC(N2C(=O)c3ccc(CN4CCC(n5c(=O)[nH]c6cc(F)ccc65)CC4)cc3C2=O)C(=O)N1 (stereo not drawn) [GT-06704, 2-(2,6-dioxopiperidin-3-yl)-5-((4-(5-fluoro-2-oxo-2,3-dihydro-1H-benzo[d]imidazol-1-yl)piperidin-1-yl)methyl)isoindoline-1,3-dione] | B (80%< substrate protein remaining %≤ 100%) | B (80%< substrate protein remaining %≤ 100%) | B (80%< substrate protein remaining %≤ 100%) | A (0% ≤ substrate protein remaining % ≤ 80%) | B (80%< substrate protein remaining %≤ 100%) | A (0% ≤ substrate protein remaining % ≤ 80%)
O=C1CCC(N2C(=O)c3ccc(CN4CCN(c5c[nH]c6ncccc56)CC4)cc3C2=O)C(=O)N1 (stereo not drawn) [GT-06707, 5-((4-(1H-pyrrolo[2,3-b]pyridin-3-yl)piperazin-1-yl)methyl)-2-(2,6-dioxopiperidin-3-yl)isoindoline-1,3-dione] | A (0% ≤ substrate protein remaining % ≤ 80%) | A (0% ≤ substrate protein remaining % ≤ 80%) | B (80%< substrate protein remaining %≤ 100%) | A (0% ≤ substrate protein remaining % ≤ 80%) | B (80%< substrate protein remaining %≤ 100%) | A (0% ≤ substrate protein remaining % ≤ 80%)
O=C1CCC(N2C(=O)c3ccc(CN4CCN(c5nc(Cl)nc6c5SCC6)CC4)cc3C2=O)C(=O)N1 (stereo not drawn) [GT-06710, 5-((4-(2-chloro-6,7-dihydrothieno[3,2-d]pyrimidin-4-yl)piperazin-1-yl)methyl)-2-(2,6-dioxopiperidin-3-yl)isoindoline-1,3-dione] | B (80%< substrate protein remaining %≤ 100%) | B (80%< substrate protein remaining %≤ 100%) | B (80%< substrate protein remaining %≤ 100%) | B (80%< substrate protein remaining %≤ 100%) | A (0% ≤ substrate protein remaining % ≤ 80%) | A (0% ≤ substrate protein remaining % ≤ 80%)
O=C1CCC(N2C(=O)c3ccc(CN4CCc5sccc5C4)cc3C2=O)C(=O)N1 (stereo not drawn) [GT-06762, 5-((6,7-dihydrothieno[3,2-c]pyridin-5(4H)-yl)methyl)-2-(2,6-dioxopiperidin-3-yl)isoindoline-1,3-dione] | A (0% ≤ substrate protein remaining % ≤ 80%) | A (0% ≤ substrate protein remaining % ≤ 80%) | A (0% ≤ substrate protein remaining % ≤ 80%) | B (80%< substrate protein remaining %≤ 100%) | B (80%< substrate protein remaining %≤ 100%) | B (80%< substrate protein remaining %≤ 100%)
O=C1CCC(N2C(=O)c3ccc(CN4CCN(c5nsc6ccccc56)CC4)cc3C2=O)C(=O)N1 (stereo not drawn) [GT-06763, 5-((4-(benzo[d]isothiazol-3-yl)piperazin-1-yl)methyl)-2-(2,6-dioxopiperidin-3-yl)isoindoline-1,3-dione] | A (0% ≤ substrate protein remaining % ≤ 80%) | A (0% ≤ substrate protein remaining % ≤ 80%) | A (0% ≤ substrate protein remaining % ≤ 80%) | B (80%< substrate protein remaining %≤ 100%) | B (80%< substrate protein remaining %≤ 100%) | A (0% ≤ substrate protein remaining % ≤ 80%)
O=C1CCC(N2C(=O)c3ccc(CN4CCN(Cc5ccc(C67CC8CC(CC(C8)C6)C7)cc5)CC4)cc3C2=O)C(=O)N1 (stereo not drawn) [GT-06810, 5-((4-(4-((3r,5r,7r)-adamantan-1-yl)benzyl)piperazin-1-yl)methyl)-2-(2,6-dioxopiperidin-3-yl)isoindoline-1,3-dione] | A (0% ≤ substrate protein remaining % ≤ 80%) | B (80%< substrate protein remaining %≤ 100%) | A (0% ≤ substrate protein remaining % ≤ 80%) | A (0% ≤ substrate protein remaining % ≤ 80%) | A (0% ≤ substrate protein remaining % ≤ 80%) | A (0% ≤ substrate protein remaining % ≤ 80%)
O=C1CCC(N2C(=O)c3ccc(CN4CCCC(C5CCNCC5)C4)cc3C2=O)C(=O)N1 (stereo not drawn) [GT-06881, 5-([3,4'-bipiperidin]-1-ylmethyl)-2-(2,6-dioxopiperidin-3-yl)isoindoline-1,3-dione] | A (0% ≤ substrate protein remaining % ≤ 80%) | B (80%< substrate protein remaining %≤ 100%) | B (80%< substrate protein remaining %≤ 100%) | B (80%< substrate protein remaining %≤ 100%) | B (80%< substrate protein remaining %≤ 100%) | A (0% ≤ substrate protein remaining % ≤ 80%)
O=C1CCC(N2C(=O)c3ccc(CNC45CC6CC(CC(C6)C4)C5)cc3C2=O)C(=O)N1 (stereo not drawn) [GT-06912, 5-((((3s,5s,7s)-adamantan-1-yl)amino)methyl)-2-(2,6-dioxopiperidin-3-yl)isoindoline-1,3-dione] | A (0% ≤ substrate protein remaining % ≤ 80%) | A (0% ≤ substrate protein remaining % ≤ 80%) | A (0% ≤ substrate protein remaining % ≤ 80%) | B (80%< substrate protein remaining %≤ 100%) | A (0% ≤ substrate protein remaining % ≤ 80%) | A (0% ≤ substrate protein remaining % ≤ 80%)
O=C1CCC(N2C(=O)c3ccc(CN4CCN(c5cnccn5)CC4)cc3C2=O)C(=O)N1 (stereo not drawn) [GT-07060, 2-(2,6-dioxopiperidin-3-yl)-5-((4-(pyrazin-2-yl)piperazin-1-yl)methyl)isoindoline-1,3-dione] | A (0% ≤ substrate protein remaining % ≤ 80%) | A (0% ≤ substrate protein remaining % ≤ 80%) | A (0% ≤ substrate protein remaining % ≤ 80%) | A (0% ≤ substrate protein remaining % ≤ 80%) | A (0% ≤ substrate protein remaining % ≤ 80%) | A (0% ≤ substrate protein remaining % ≤ 80%)
O=C1CCC(N2C(=O)c3ccc(CN4CCN(c5cccnn5)CC4)cc3C2=O)C(=O)N1 (stereo not drawn) [GT-07844, 2-(2,6-dioxopiperidin-3-yl)-5-((4-(pyridazin-3-yl)piperazin-1-yl)methyl)isoindoline-1,3-dione] | B (80%< substrate protein remaining %≤ 100%) | B (80%< substrate protein remaining %≤ 100%) | A (0% ≤ substrate protein remaining % ≤ 80%) | A (0% ≤ substrate protein remaining % ≤ 80%) | B (80%< substrate protein remaining %≤ 100%) | B (80%< substrate protein remaining %≤ 100%)
